Data from patent publication US10086034B2, “Compositions and methods for inducing urinary voiding and defecation” (Dignify Therapeutics, LLC, priority 2013, dated 2018).
“Also recorded” adds a separate entry of the source. Where no end group is shown, it is not given here. [ ]: non-standard residue; d: D form. βAla = NCCC(=O)O

Legend:
[1] = test system: colorectum of anesthetized acutely spinalized female rats; assay: Colorectal contractility: balloon catheter colorectal pressure in anesthetized rats; format: in vivo, Sprague Dawley rats; conditions: antagonist 1 mg/kg i.v.; DTI-100 10 μg/kg given 5 min later
Description: General: In vivo studies were performed in anesthetized, acutely spinalized (T9-10 level) rats (N=37) or spinally intact (N=3) rats. Adult female Sprague Dawley rats (Charles River, N.C.; 250-300 g) were housed at an AAALAC approved facility in cages (3/cage) with free access to water and food in a colony room that was maintained on a 12 hr/12 hr light/dark cycle 1-2 weeks before the experiment. Rats were anesthetized with urethane (1.2-1.4 g/kg subcutaneous injection). Surgical procedures were then performed with the addition of isoflurane anesthesia (0.05-1.5% in O2) as the full anesthetic effect of urethane takes about 1-2 hrs. […]
Colorectal Contractility: Colorectal pressures were measured via a latex balloon catheter (length 3-5 cm) inserted (˜4 cm) into the distal rectal/colon region. […] This allowed drug induced changes in colorectal pressure to be monitored. Parameters measured include peak colorectal pressure response, duration of time above baseline activity (in the 1st 5 min after drug administration), area under the curve (measured during the 1st 5 min after drug administration) and the number of contractile events after vehicle and drug administration. […]
Data analysis: Data were examined qualitatively and quantitatively. The mean, standard deviation and standard error of the mean were calculated using MICROSOFT EXCEL. […]

[2] = test system: bladder of anesthetized acutely spinalized female rats; assay: Bladder contractility: isovolumetric bladder pressure recording in anesthetized acutely spinalized rats; format: in vivo, Sprague Dawley rats; conditions: for effect of antagonist pre-administration on DTI-100 induced increase in bladder pressure: antagonist 1 mg/kg, DTI-100 10 μg/kg i.v., paired t-test, N=4; for bladder pressure (peak pressure response): increasing i.v. doses, acutely spinalized anesthetized female rats
Description: General: In vivo studies were performed in anesthetized, acutely spinalized (T9-10 level) rats (N=37) or spinally intact (N=3) rats. Adult female Sprague Dawley rats (Charles River, N.C.; 250-300 g) were housed at an AAALAC approved facility in cages (3/cage) with free access to water and food in a colony room that was maintained on a 12 hr/12 hr light/dark cycle 1-2 weeks before the experiment. Rats were anesthetized with urethane (1.2-1.4 g/kg subcutaneous injection). Surgical procedures were then performed with the addition of isoflurane anesthesia (0.05-1.5% in O2) as the full anesthetic effect of urethane takes about 1-2 hrs.
A catheter filled with heparinized saline (50 unit/ml) was inserted into the carotid artery and connected to a pressure transducer for measurement of blood pressure and heart rate. A catheter was inserted into the jugular vein for intravenous (i.v.) administration of drugs. In order to transect the spinal cord, the skin and muscle on the dorsal side at the level of the lower thoracic vertebrae were incised, and the spinal cord was carefully exposed by a laminectomy and transected at the T8-T10 spinal level. Gelfoam was placed at the incision site and the muscle and skin overlying the vertebrae were closed with wound clips. The spinal cord was cut at least 60 min before starting the experimental protocol.
Bladder Contractility: For isovolumetric recordings of bladder pressure a saline-filled polyethylene tubing with a flared tip (PE 50®) catheter was inserted into the bladder and secured in place at the dome. This catheter was used to slowly infuse saline (0.2-0.3 ml/min by an infusion pump (PHD2000 infusion, Harvard Apparatus, Holliston, Mass.) to determine the bladder capacity. The bladder capacity was determined as the volume necessary to fill the bladder to the leak point pressure (i.e. volume required to produce voiding). The bladder was then emptied, the external urethra occluded and the bladder filled to 70% capacity. This method produced a stable baseline pressure in which drug induced changes in bladder contractility could be measured. Peak pressure responses, time to peak, and time to return to near baseline values (within 5 mmHg of baseline; i.e. duration of action) after vehicle and drug administration were measured.
Dosing: Responses to saline i.v. were given to ensure stable baseline pressures and lack of response to saline (vehicle control for DTI-100) at the start of each protocol and periodical throughout the experiment. DTI-100 was given in dose range of 0.01-100 μg/kg. The NK1R antagonist, Spantide I (solubilized in saline) and NK2R antagonist GR159897 (solubilized at 50 mM in DMSO and then diluted in saline) were given at a 1 mg/kg dose. Neurokinin A (NKA) and (betaAla8)NKA(4-10) were given at doses 1-100 μg/kg. Additional routes of drug administration explored included, intramuscular, subcutaneous, and sublingual. [Lys5,MeLeu9,Nle10]-NKA(4-10) (SEQ ID NO: 1) or “DTI-100”, Spantide I, GR159897, Neurokinin A, and (BetaAla8)NKA(4-10) were obtained from TOCRIS R&D SYSTEMS, Inc. (Minneapolis, Minn.).
Data analysis: Data were examined qualitatively and quantitatively. The mean, standard deviation and standard error of the mean were calculated using MICROSOFT EXCEL. One way ANOVA tests were performed with PRISM 5 for WINDOWS (Graphpad Software, Inc., La Jolla, Calif.) and unpaired and paired t-tests were performed in EXCEL. P<0.05 was considered as statistically significant.

[3] = test system: Beagle dogs; assay: Adverse events after a high i.v. dose of NK2R agonist in beagle dogs; format: in vivo; conditions: 150 ug/kg intravenous, stated in Example 10 (present tense methods)
Description: General: Beagle dogs (6-11 kg, purpose-bred and experimentally naïve) are housed at an AAALAC approved facility in cages (1/cage) with access to water and food. A butterfly intravenous catheter is inserted into a vein (e.g. radial or saphenous). All animal activities are performed in compliance with USDA guidelines. Animals are monitored for 5 days prior to dosing to ensure adequate health.
Treatments and Dosing: Animals are administered a dose of an NK2R agonist that produces observed adverse events. […] Adverse events are commonly quantified by measuring the number of events and the duration of each event occurring during “1 minute time bins” after NK2R agonist administration to create a time histogram of events. When voiding has stopped, a NK2R antagonist is administered intravenously. Efficacy of the NK2R antagonist is obtained by measuring the reduction in the number and duration of adverse events.

| Compound | effect of antagonist pre-administration on DTI-100 induced increase in colorectal activity [1] | effect of antagonist pre-administration on DTI-100 induced increase in bladder pressure [2] | bladder pressure (peak pressure response) [2] | further results |
| --- | --- | --- | --- | --- |
| COC1(C[S@@+]([O-])c2ccccc2)CCN(CCc2c[nH]c3ccc(F)cc23)CC1 [GR159897] | significantly blocked the bladder pressure increase produced by DTI-100 | significantly blocked the bladder pressure increase to DTI-100 | – | – |
| His-Lys-Thr-Asp-Ser-Phe-Val-Gly-Leu-Met-NH2 (HKTDSFVGLM-NH2) [NKA, neuropeptide neurokininA, peptide agonist for NK2R] | – | – | produce increases in bladder pressure | time to peak bladder pressure response ([2]; i.v., all doses studied): ≤ 60 s; bladder pressure ([2]; intramuscular, subcutaneous and sublingual injections, DTI-100 10-100 μg/kg, NKA 5-100 μg/kg): showed an increase in bladder pressure |
| CCCC[C@H](NC(=O)[C@H](CC(C)C)N(C)C(=O)CNC(=O)[C@@H](NC(=O)[C@H](Cc1ccccc1)NC(=O)[C@H](CCCCN)NC(=O)[C@@H](N)CC(=O)O)C(C)C)C(N)=O [DTI-100, [Lys5,MeLeu9,Nle10]-NKA(4-10)] | – | – | – | duration of adverse events [3]: approximately 15 minutes; adverse events observed ([3]; within minutes after voiding and defecation): retching, emesis, panting, and vocalization |
| Asp-Ser-Phe-Val-β-Ala-Leu-Met-NH2 (DSFV[βAla]LM-NH2) [(betaAla8)NKA(4-10), peptide agonist for NK2R] | – | – | produce increases in bladder pressure | – |
| Spantide I | did not reduce the effect of DTI-100 on colorectal activity | did not reduce the effect of DTI-100 on bladder pressure; also recorded: the same before (Before) and after (After) administration | – | – |
